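In this assay, cells in 96-well plates receive the compound at five concentrations for 48 hours. Endpoints are linearly interpolated between the surrounding concentrations. GI50 = concentration required for 50% inhibition of growth.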 Active and inactive are the calls of the source. Rule as the data show it: active = GI50 up to about 1.1 µM and inactive = higher.
What was measured:
Test in all cases: NCI tumour cell line growth inhibition, 48 h
SW-620 = test system: SW-620
MDA-MB-231 = test system: MDA-MB-231
K562 = test system: K562
HOP-92 = test system: HOP-92
SF-268 = test system: SF-268
BT-549 = test system: BT-549
SK-MEL-2 = test system: SK-MEL-2
A498 = test system: A498
M14 = test system: M14
EKVX = test system: EKVX
HCT-116 = test system: HCT-116
HCT-15 = test system: HCT-15
SN12C = test system: SN12C
NCI-H23 = test system: NCI-H23
Malme-3M = test system: Malme-3M
MDA-MB-435 = test system: MDA-MB-435
SR = test system: SR
MCF7 = test system: MCF7
786-0 = test system: 786-0

SMILES | GI50 (SW-620) | GI50 (MDA-MB-231) | GI50 (K562) | GI50 (HOP-92) | GI50 (SF-268) | GI50 (BT-549) | GI50 (SK-MEL-2) | GI50 (A498) | GI50 (M14) | GI50 (EKVX) | GI50 (HCT-116) | GI50 (HCT-15) | GI50 (SN12C) | GI50 (NCI-H23) | GI50 (Malme-3M) | GI50 (MDA-MB-435) | GI50 (SR) | GI50 (MCF7) | GI50 (786-0)
O=C1C=CC2(C=C1)O[C@H](Cc1ccccc1)[C@@H](Cc1ccccc1)O2 | 0.137 µM (active) | 1.12 µM (active) | 0.388 µM (active) | 1.01 µM (active) | 0.755 µM (active) | 0.201 µM (active) | 1.41 µM (inactive) | 5.74 µM (inactive) | 0.653 µM (active) | 0.355 µM (active) | 0.1 µM (active) | 0.243 µM | 0.665 µM (active) | 1.16 µM (inactive) | 1.48 µM (inactive) | 1.31 µM (inactive) | 0.11 µM (active) | 0.256 µM (active) | 
Cc1ccc(CC2(OCCN(C)C)CCC(C(C)(C)C)CC2)cc1 (stereo unspecified) | 2.25 µM (inactive) | 6.01 µM (inactive) | 1.71 µM (inactive) |  | 11.5 µM (inactive) | 4.61 µM (inactive) | 1.97 µM (inactive) | 13 µM (inactive) | 1.79 µM (inactive) | 6.14 µM (inactive) | 2.38 µM (inactive) | 3.86 µM | 4.8 µM (inactive) | 10.7 µM (inactive) | 1.63 µM (inactive) | 2.37 µM (inactive) | 2.04 µM (inactive) | 2.43 µM (inactive) | 1.99 µM (inactive)
CCN(CC)CCNc1ccc2nnn3c4ccc(OC(C)=O)cc4c(=O)c1c23 | 1.11 µM (active) | 2.65 µM (inactive) |  | 3.9 µM (inactive) | 3.01 µM (inactive) | 13.4 µM (inactive) | 14.8 µM (inactive) | 6.76 µM (inactive) | 6.64 µM (inactive) | 5.56 µM (inactive) | 3.46 µM (inactive) | 1.46 µM | 2.26 µM (inactive) | 3.77 µM (inactive) | 1.11 µM (active) | 5.15 µM (inactive) | 0.706 µM (active) | 2.16 µM (inactive) | 
N=C(N)N/N=C/c1nc2n(c1[N+](=O)[O-])CCS2 | 28.4 µM (inactive) | 29 µM (inactive) |  | > 100 µM (inactive) | 10.6 µM (inactive) | 31.6 µM (inactive) | 17.5 µM (inactive) | 43.3 µM (inactive) | 25.2 µM (inactive) | 22.9 µM (inactive) | 21.9 µM (inactive) | 65.3 µM | 22 µM (inactive) | 14.5 µM (inactive) | 15.6 µM (inactive) | 27.9 µM (inactive) | 14.5 µM (inactive) | 15 µM (inactive) | 38.6 µM (inactive)
c1ccc(C(NC2CCCCC2NCCNC2CCCCC2NC(c2ccccc2)(c2ccccc2)c2ccccc2)(c2ccccc2)c2ccccc2)cc1 (stereo unspecified) | 22.6 µM (inactive) | > 100 µM (inactive) | 44.5 µM (inactive) | 13.9 µM (inactive) | 21.3 µM (inactive) | 17.5 µM (inactive) | 26.1 µM (inactive) | 22.6 µM (inactive) |  | 87.9 µM (inactive) | 20.1 µM (inactive) | > 100 µM | > 100 µM (inactive) | 20.9 µM (inactive) |  | 17.7 µM (inactive) | 81.7 µM (inactive) | 17.7 µM (inactive) | 
Nc1nc(Cl)c(/C=N\O)c(NCC2(CO)CCC2)n1 | > 100 µM (inactive) | 51.2 µM (inactive) | 14 µM (inactive) | 19.6 µM (inactive) | > 100 µM (inactive) | 32.6 µM (inactive) |  | 19.1 µM (inactive) |  | 17.3 µM (inactive) | 13.7 µM (inactive) | 60.8 µM | 68.4 µM (inactive) | 1.73 µM (inactive) | 30.6 µM (inactive) | 40.2 µM (inactive) | 11.6 µM (inactive) | 25.2 µM (inactive) | 41.7 µM (inactive)
CCCCCC/C=C\CCCCCCCCCc1c(O)c(OC)cc(O)c1CN(C)C | 2.93 µM (inactive) | 14.5 µM (inactive) | 1.73 µM (inactive) |  | > 10 µM (inactive) | 9.2 µM (inactive) | 20.7 µM (inactive) | 17 µM (inactive) | 11.4 µM (inactive) | 10.7 µM (inactive) | 3.85 µM (inactive) | 3.01 µM | 4.83 µM (inactive) | 8.61 µM (inactive) |  | 6.64 µM (inactive) | 0.692 µM (active) | 2.55 µM (inactive) | 1.7 µM (inactive)
COc1ccc(-c2cc(-c3ccc(Nc4ccnc5cc(Cl)ccc45)cc3)[nH]c(=O)c2C#N)cc1 | > 100 µM (inactive) | > 100 µM (inactive) | > 100 µM (inactive) | > 100 µM (inactive) | > 100 µM (inactive) | > 100 µM (inactive) | > 100 µM (inactive) | > 100 µM (inactive) | > 100 µM (inactive) | > 100 µM (inactive) | > 100 µM (inactive) | > 100 µM |  | > 100 µM (inactive) | > 100 µM (inactive) | > 100 µM (inactive) | > 100 µM (inactive) | > 100 µM (inactive) | > 100 µM (inactive)
Nc1ccc(Nc2cc(=O)[nH]c(=O)[nH]2)cc1Cl | > 100 µM (inactive) | > 100 µM (inactive) | > 100 µM (inactive) | > 100 µM (inactive) | > 100 µM (inactive) | > 100 µM (inactive) | > 100 µM (inactive) | > 100 µM (inactive) | > 100 µM (inactive) |  | > 100 µM (inactive) | > 100 µM | > 100 µM (inactive) | > 100 µM (inactive) | > 100 µM (inactive) | > 100 µM (inactive) | > 100 µM (inactive) | > 100 µM (inactive) | > 100 µM (inactive)
CCOC(=O)C1=CNC(C(=O)OCC)C1c1cccn1-c1ccccc1 (stereo unspecified) | 27.1 µM (inactive) | 12.5 µM (inactive) | 32.8 µM (inactive) | 16.3 µM (inactive) | 31.3 µM (inactive) | 36.7 µM (inactive) | 12.1 µM (inactive) | 37 µM (inactive) | 32.9 µM (inactive) | 35.8 µM (inactive) | 23.6 µM (inactive) | 40.2 µM | 29.4 µM (inactive) | 37.7 µM (inactive) |  | 21.2 µM (inactive) | 24.8 µM (inactive) | 31.9 µM (inactive) | 32.5 µM (inactive)
Cc1cc(C)c2c(c1)C(=O)C1(C2)Cc2c(ccc(C)c2C)C1=O (stereo unspecified) | > 100 µM (inactive) | > 100 µM (inactive) | > 100 µM (inactive) | > 100 µM (inactive) | > 100 µM (inactive) | > 100 µM (inactive) | > 100 µM (inactive) | > 100 µM (inactive) | > 100 µM (inactive) | > 100 µM (inactive) | > 100 µM (inactive) | > 100 µM | > 100 µM (inactive) |  | 22.3 µM (inactive) | > 100 µM (inactive) | > 100 µM (inactive) | > 100 µM (inactive) | > 100 µM (inactive)
c1cc(C[S+]2CCCC2)sc1C[S+]1CCCC1 | > 100 µM (inactive) | > 100 µM (inactive) | > 100 µM (inactive) | > 100 µM (inactive) | > 100 µM (inactive) | > 100 µM (inactive) |  | 39.2 µM (inactive) | > 100 µM (inactive) | > 100 µM (inactive) | > 100 µM (inactive) | > 100 µM | > 100 µM (inactive) | > 100 µM (inactive) | > 100 µM (inactive) | > 100 µM (inactive) | > 100 µM (inactive) | > 100 µM (inactive) | > 100 µM (inactive)

— ChEMBL document CHEMBL1201862, “PubChem BioAssay data set” (2004)
